The NIST ThermoML archive (doi:10.1021/je0497247)

Key:
[1] = 100 kPa, Liquid; for viscosity: Capillary tube (Ostwald / Ubbelohde) method; for mass density: Pycnometric method
[2] = wn = mass fraction of the nth substance listed; details: 100 kPa, Liquid; for mass density: Pycnometric method; for viscosity: Capillary tube (Ostwald / Ubbelohde) method

O=C(O)c1ccccc1 [benzoic acid]
[1]
Details | mass density [kg/m3] | thermal conductivity [W/m/K] | viscosity [mPa·s]
400.3 K | – | – | 1.372
401.3 K | 1089.5 | – | –
406.8 K | – | 0.139 | –
409.3 K | – | – | 1.238
410.3 K | 1080.2 | – | –
418.3 K | – | – | 1.117
419.3 K | 1069.8 | – | –
424.4 K | – | 0.137 | –
427.2 K | – | – | 1.026
428.2 K | 1060.2 | – | –
432.1 K | 1055 | – | 0.953
444.9 K | – | 0.134 | –
447.1 K | 1036 | – | 0.802
465.1 K | – | 0.132 | –

O=C(O)c1ccccc1 [benzoic acid] + O
[2]
Details | mass density [kg/m3] | thermal conductivity [W/m/K] | viscosity [mPa·s]
373 K, w1 = 0.1 | – | 0.659 | –
374.6 K, w1 = 0.05 | – | 0.671 | –
379.1 K, w1 = 0.1 | 974.1 | – | –
379.6 K, w1 = 0.05 | 963.7 | – | –
380.6 K, w1 = 0.1 | – | – | 0.319
381.1 K, w1 = 0.05 | – | – | 0.288
391 K, w1 = 0.2 | – | 0.649 | –
392.9 K, w1 = 0.1 | 961 | – | –
393.6 K, w1 = 0.05 | – | 0.675 | –
393.6 K, w1 = 0.4 | – | 0.575 | –
393.9 K, w1 = 0.8 | – | 0.199 | –
394.2 K, w1 = 0.1 | – | 0.662 | –
394.6 K, w1 = 0.05 | 951.9 | – | –
395.9 K, w1 = 0.1 | – | – | 0.272
397.6 K, w1 = 0.05 | – | – | 0.256
400.3 K, w1 = 0.2 | 963.5 | – | –
400.3 K, w1 = 1 | – | – | 1.372
400.8 K, w1 = 0.4 | 988.8 | – | –
400.9 K, w1 = 0.8 | 1050.1 | – | –
401.3 K, w1 = 1 | 1089.5 | – | –
401.6 K, w1 = 0.6 | 1013.8 | – | –
401.8 K, w1 = 0.2 | – | – | 0.329
402.3 K, w1 = 0.4 | – | – | 0.501
402.4 K, w1 = 0.8 | – | – | 0.931
403.1 K, w1 = 0.6 | – | – | 0.708
406.8 K, w1 = 1 | – | 0.139 | –
409.2 K, w1 = 0.2 | – | 0.65 | –
409.2 K, w1 = 0.4 | – | 0.571 | –
409.3 K, w1 = 1 | – | – | 1.238
410.3 K, w1 = 1 | 1080.2 | – | –
410.9 K, w1 = 0.1 | – | 0.67 | –
412.1 K, w1 = 0.1 | 945.4 | – | –
413.2 K, w1 = 0.8 | – | 0.197 | –
413.3 K, w1 = 0.05 | – | 0.676 | –
413.4 K, w1 = 0.05 | 935.5 | – | –
413.8 K, w1 = 0.2 | 950.8 | – | –
414.8 K, w1 = 0.4 | 975.1 | – | –
414.8 K, w1 = 0.8 | 1035 | – | –
415.1 K, w1 = 0.1 | – | – | 0.236
415.9 K, w1 = 0.6 | 999.2 | – | –
416.4 K, w1 = 0.05 | – | – | 0.219
416.8 K, w1 = 0.2 | – | – | 0.274
417.8 K, w1 = 0.4 | – | – | 0.383
418 K, w1 = 0.2 | – | 0.651 | –
418.3 K, w1 = 1 | – | – | 1.117
418.8 K, w1 = 0.8 | – | – | 0.69
418.9 K, w1 = 0.6 | – | – | 0.547
419.3 K, w1 = 1 | 1069.8 | – | –
420.1 K, w1 = 0.4 | – | 0.549 | –
424.4 K, w1 = 1 | – | 0.137 | –
427.2 K, w1 = 1 | – | – | 1.026
428.2 K, w1 = 1 | 1060.2 | – | –
428.4 K, w1 = 0.1 | 929.6 | – | –
430.1 K, w1 = 0.4 | – | 0.568 | –
431.3 K, w1 = 0.8 | 1018.8 | – | –
431.4 K, w1 = 0.1 | – | – | 0.211
431.9 K, w1 = 0.2 | 933.7 | – | –
432.1 K, w1 = 1 | 1055 | – | 0.953
432.6 K, w1 = 0.4 | 955 | – | –
433.1 K, w1 = 0.05 | 915.2 | – | –
433.1 K, w1 = 0.8 | – | 0.192 | –
433.9 K, w1 = 0.6 | 981.1 | – | –
434.3 K, w1 = 0.8 | – | – | 0.542
434.9 K, w1 = 0.2 | – | – | 0.234
435.6 K, w1 = 0.4 | – | – | 0.309
436.1 K, w1 = 0.05 | – | – | 0.194
436.9 K, w1 = 0.6 | – | – | 0.399
444.9 K, w1 = 0.1 | 912.6 | – | –
444.9 K, w1 = 1 | – | 0.134 | –
447.1 K, w1 = 1 | 1036 | – | 0.802
447.9 K, w1 = 0.1 | – | – | 0.194
449.4 K, w1 = 0.8 | 1000.5 | – | –
450.8 K, w1 = 0.05 | 896.3 | – | –
451 K, w1 = 0.8 | – | 0.188 | –
452.1 K, w1 = 0.4 | 932 | – | –
452.4 K, w1 = 0.2 | 912 | – | –
452.4 K, w1 = 0.8 | – | – | 0.438
453.4 K, w1 = 0.6 | 959.5 | – | –
453.8 K, w1 = 0.05 | – | – | 0.177
455.1 K, w1 = 0.4 | – | – | 0.263
455.4 K, w1 = 0.2 | – | – | 0.206
456.4 K, w1 = 0.6 | – | – | 0.334
465.1 K, w1 = 1 | – | 0.132 | –
